Results from US20030228373A1, “Composition including a triamine and a biocide and a method for inhibiting the growth of microorganisms with the same” (Lonza Inc., priority 2002, published 2003).

Tested on: microorganisms in the process water
Assay: Microbial count reduction in paper mill process water (3 h contact at 37° C., TGE agar plate count); synergism by the Kull method
Format: cell-based
Conditions: for Colony forming units per milliliter of sample (CFU/ml) after overnight incubation / Logarithmic Growth Reduction relative to the Control Experiment [log (CFU/ml of control plate) − log (CFU/ml of experimental plate)]: process water pH 7.0, 3 hours at 37° C.; for concentration alone required to yield a thousand fold reduction in the microorganism count of the process water (Qa, Qb): substance alone
Method: Samples of process water having a pH of 7.0 obtained from a paper mill were supplemented with Lonzabac® 12.100 and Barquat® MB-80 at the concentrations indicated in Table 1 below. Barquat® MB-80 is an 80% aqueous solution of N-(C12-C16 alkyl)-N-benzyl-N,N-dimethylammonium chloride available from Lonza Inc. of Fair Lawn, N.J. Lonzabac® 12.100 is a 100% N,N-bis(3-aminopropyl)-dodecylamine liquid available from Lonza Inc. The samples were immediately mixed and incubated for 3 hours at 37° C. with agitation in an orbital shaker. After 3 hours, tryptone glucose extract (TGE) agar plates were inoculated with each sample and grown overnight at 37° C. The number of colonies on each plate was then counted.
This experiment was repeated with a sample of process water that was not treated with Lonzabac® 12.100 or Barquat® MB-80 as a control.
Synergism for the solutions in Table 1 against the microorganisms in the process water was calculated by the methods described in C. E. Kull et al., “Mixtures of Quaternary Ammonium Compounds and Long-chain Fatty Acids as Antifungal Agents”, Applied Microbiology, 9:538-541 (1961). The synergism value (QA/Qa+QB/Qb) was determined. QA is the concentration of Lonzabac® 12.100 (in ppm) in a Lonzabac® 12.100/Barquat® MB-80 mixture, which yielded a thousand fold reduction in the microorganism count of the process water. Qa is the concentration of Lonzabac® 12.100 alone (in ppm) required to yield a thousand fold reduction in the microorganism count of the process water. QB is the concentration of Barquat® MB-80 (in ppm) in a Lonzabac® 12.100/Barquat® MB-80 mixture, which yielded a thousand fold reduction in the microorganism count of the process water. Qb is the concentration of Barquat® MB-80 alone (in ppm) required to yield a thousand fold reduction in the microorganism count of the process water.
The procedure in Example 1 was repeated substituting peracetic acid for Barquat® MB-80 with the solutions in Table 2 below.

Structure (SMILES) | Colony forming units per milliliter of sample (CFU/ml) after overnight incubation (Peracetic Acid 20 ppm alone) | Logarithmic Growth Reduction relative to the Control Experiment [log (CFU/ml of control plate) − log (CFU/ml of experimental plate)] (Peracetic Acid 20 ppm alone) | Colony forming units per milliliter of sample (CFU/ml) after overnight incubation (Peracetic Acid 50 ppm alone) | Logarithmic Growth Reduction relative to the Control Experiment [log (CFU/ml of control plate) − log (CFU/ml of experimental plate)] (Peracetic Acid 50 ppm alone) | concentration alone required to yield a thousand fold reduction in the microorganism count of the process water (Qa, Qb) [ppm] | Colony forming units per milliliter of sample (CFU/ml) after overnight incubation (Lonzabac 12.100 15 ppm alone) | Logarithmic Growth Reduction relative to the Control Experiment [log (CFU/ml of control plate) − log (CFU/ml of experimental plate)] (Lonzabac 12.100 15 ppm alone) | Colony forming units per milliliter of sample (CFU/ml) after overnight incubation (Lonzabac 12.100 30 ppm alone) | Logarithmic Growth Reduction relative to the Control Experiment [log (CFU/ml of control plate) − log (CFU/ml of experimental plate)] (Lonzabac 12.100 30 ppm alone) | Colony forming units per milliliter of sample (CFU/ml) after overnight incubation (Lonzabac 12.100 60 ppm alone) | Logarithmic Growth Reduction relative to the Control Experiment [log (CFU/ml of control plate) − log (CFU/ml of experimental plate)] (Lonzabac 12.100 60 ppm alone) | Colony forming units per milliliter of sample (CFU/ml) after overnight incubation (Lonzabac 12.100 90 ppm alone) | Logarithmic Growth Reduction relative to the Control Experiment [log (CFU/ml of control plate) − log (CFU/ml of experimental plate)] (Lonzabac 12.100 90 ppm alone)
CC(=O)OO [Peracetic Acid, peracetic acid, reference compound] | 1.43 × 10^7 CFU/ml | 1.3 | 1.00 × 10^5 CFU/ml | 3.2 | 50 | – | – | – | – | – | – | – | –
CCCCCCCCCCCCN(CCCN)CCCN [Lonzabac ® 12.100, N,N-bis(3-aminopropyl)-dodecylamine] | – | – | – | – | 60 | 6.55 × 10^7 CFU/ml | 0.7 | 6.40 × 10^6 CFU/ml | 1.7 | 3.25 × 10^5 CFU/ml | 3.0 | 1.00 × 10^5 CFU/ml | 3.5
